BigSolDB 2.1

C[C@H]1COc2c(N3CCN(C)CC3)c(F)c(N)c3c(=O)c(C(=O)O)cn1c23.Cl
solubility (mole fraction)
Conditions	273.15 K	278.15 K	283.15 K	288.15 K	293.15 K	298.15 K	303.15 K	308.15 K	313.15 K	318.15 K
in acetonitrile	2.41e-06	2.73e-06	3.11e-06	3.59e-06	4.1e-06	4.68e-06	5.36e-06	6.07e-06	6.9e-06	7.84e-06
in ethanol	9.29e-06	1.06e-05	1.22e-05	1.39e-05	1.59e-05	1.78e-05	2.02e-05	2.29e-05	2.56e-05	2.87e-05
in water	0.000436	0.000564	0.000725	0.000971	0.00126	0.00161	0.00204	0.00253	0.00311	0.00376
